Reference: ChEMBL document CHEMBL2074486, “Identification of basic residues involved in drug export function of human multidrug resistance-associated protein 2” (J Biol Chem, 2000)

Columns and labels:
[1] = target: T1, ATP-binding cassette sub-family C member 2 (Homo sapiens, UniProt Q92887); assay: TP_TRANSPORTER: excretion in MRP2-expressing CHO cells; assay type: functional, cell-based; conditions: hamster
[2] = target: T1, ATP-binding cassette sub-family C member 2; assay: TP_TRANSPORTER: excretion in MRP2-expressing COS-7 cells; assay type: functional, cell-based; conditions: monkey

T1 sequence (Q92887 whole entry): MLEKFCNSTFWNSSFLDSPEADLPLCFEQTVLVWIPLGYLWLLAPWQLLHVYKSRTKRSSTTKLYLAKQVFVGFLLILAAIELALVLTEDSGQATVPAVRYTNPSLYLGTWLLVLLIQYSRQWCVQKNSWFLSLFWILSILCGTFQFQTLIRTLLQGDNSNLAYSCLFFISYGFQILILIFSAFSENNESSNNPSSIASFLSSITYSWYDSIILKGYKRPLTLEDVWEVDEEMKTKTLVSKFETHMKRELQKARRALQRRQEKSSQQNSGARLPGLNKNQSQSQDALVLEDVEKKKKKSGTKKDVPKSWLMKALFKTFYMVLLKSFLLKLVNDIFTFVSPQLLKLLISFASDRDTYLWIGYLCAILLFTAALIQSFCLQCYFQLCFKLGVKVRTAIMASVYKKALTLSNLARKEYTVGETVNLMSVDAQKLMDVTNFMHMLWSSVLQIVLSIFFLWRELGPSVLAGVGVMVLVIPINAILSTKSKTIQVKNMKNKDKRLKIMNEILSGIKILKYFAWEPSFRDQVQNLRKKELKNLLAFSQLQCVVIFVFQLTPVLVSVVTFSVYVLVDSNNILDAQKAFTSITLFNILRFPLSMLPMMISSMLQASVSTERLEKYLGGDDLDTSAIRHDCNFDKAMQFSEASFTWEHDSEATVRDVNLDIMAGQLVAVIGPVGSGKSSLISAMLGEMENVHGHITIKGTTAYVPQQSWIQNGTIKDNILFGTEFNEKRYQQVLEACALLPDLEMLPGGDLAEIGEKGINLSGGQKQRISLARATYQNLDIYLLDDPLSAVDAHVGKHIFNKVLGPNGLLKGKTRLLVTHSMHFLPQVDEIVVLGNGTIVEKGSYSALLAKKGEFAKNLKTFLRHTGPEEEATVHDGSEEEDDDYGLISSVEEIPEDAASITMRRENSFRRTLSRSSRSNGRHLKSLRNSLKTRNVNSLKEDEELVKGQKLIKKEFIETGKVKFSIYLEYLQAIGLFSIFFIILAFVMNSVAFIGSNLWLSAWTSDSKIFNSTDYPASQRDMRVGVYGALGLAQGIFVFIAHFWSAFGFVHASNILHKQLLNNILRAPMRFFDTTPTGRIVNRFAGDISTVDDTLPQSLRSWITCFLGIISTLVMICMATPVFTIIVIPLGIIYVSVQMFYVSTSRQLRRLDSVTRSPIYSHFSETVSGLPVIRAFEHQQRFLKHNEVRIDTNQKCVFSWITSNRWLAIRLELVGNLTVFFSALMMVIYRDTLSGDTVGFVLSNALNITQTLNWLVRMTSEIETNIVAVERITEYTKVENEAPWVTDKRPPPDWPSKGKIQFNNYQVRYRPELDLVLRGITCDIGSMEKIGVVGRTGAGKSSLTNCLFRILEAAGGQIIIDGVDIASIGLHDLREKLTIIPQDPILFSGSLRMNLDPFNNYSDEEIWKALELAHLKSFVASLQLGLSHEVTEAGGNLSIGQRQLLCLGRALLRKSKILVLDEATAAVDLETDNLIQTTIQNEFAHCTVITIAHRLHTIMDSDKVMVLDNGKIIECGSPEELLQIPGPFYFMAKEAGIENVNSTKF

Row | Compound | Activity [1] | Activity [2]
1 | N[C@@H](CCC(=O)N[C@H](CSc1cc(=O)n2c(=O)ccn12)C(=O)NCC(=O)O)C(=O)O | substrate [+] | substrate [+]
2 | N[C@@H](CCC(=O)N[C@H](CSCc1ccc(-c2c3ccc(=O)cc-3oc3cc(O)ccc23)c(C(=O)O)c1)C(=O)NCC(=O)O)C(=O)O [Glutathione-methylfluorescein] | substrate [+] | substrate [+]
